Assay results: patent publication US20080175794A1, “Substituted Pyridazinyl- and Pyrimidinyl-Quinolin-4-Ylamine Analogues” (NEUROGEN CORPORATION, priority 2005, published 2008)

molecular target: T1, human capsaicin receptor (Homo sapiens, UniProt Q8NER1); assay: Calcium mobilization assay, determination of antagonist activity (Example 6); assay type: cell-based; conditions: Table III; assay provided in Example 6; cells expressing human capsaicin receptor, capsaicin at EC50
T1 construct: expressed in transfected cells
T1 sequence (Q8NER1 whole entry): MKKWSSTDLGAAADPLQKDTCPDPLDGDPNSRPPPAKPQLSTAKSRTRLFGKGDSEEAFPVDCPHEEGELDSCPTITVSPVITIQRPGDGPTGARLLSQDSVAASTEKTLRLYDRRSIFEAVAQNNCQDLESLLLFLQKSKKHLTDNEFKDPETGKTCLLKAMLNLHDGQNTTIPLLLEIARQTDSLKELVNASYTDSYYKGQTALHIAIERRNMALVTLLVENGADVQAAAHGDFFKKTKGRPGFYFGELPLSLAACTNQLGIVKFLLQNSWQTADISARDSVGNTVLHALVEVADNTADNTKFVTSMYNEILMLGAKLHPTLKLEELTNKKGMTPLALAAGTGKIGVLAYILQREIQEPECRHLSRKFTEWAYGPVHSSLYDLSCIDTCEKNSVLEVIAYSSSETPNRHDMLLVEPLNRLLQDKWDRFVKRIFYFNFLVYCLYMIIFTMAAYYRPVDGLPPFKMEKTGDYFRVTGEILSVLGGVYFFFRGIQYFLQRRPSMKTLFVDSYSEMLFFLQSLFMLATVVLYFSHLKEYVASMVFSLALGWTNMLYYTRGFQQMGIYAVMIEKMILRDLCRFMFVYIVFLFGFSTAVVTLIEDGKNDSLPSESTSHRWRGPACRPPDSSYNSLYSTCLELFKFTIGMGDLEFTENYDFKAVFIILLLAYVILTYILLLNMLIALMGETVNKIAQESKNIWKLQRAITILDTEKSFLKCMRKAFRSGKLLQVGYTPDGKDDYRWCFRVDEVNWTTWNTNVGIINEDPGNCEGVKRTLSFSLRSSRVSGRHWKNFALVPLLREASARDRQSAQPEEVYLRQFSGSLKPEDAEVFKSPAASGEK
Protocol: A cDNA encoding full length human capsaicin receptor (SEQ ID NO:1, 2 or 3 of U.S. Pat. No. 6,482,611) is subcloned in the plasmid pBK-CMV (Stratagene, La Jolla, Calif.) for recombinant expression in mammalian cells.
Human embryonic kidney (HEK293) cells are transfected with the pBK-CMV expression construct encoding the full length human capsaicin receptor using standard methods. The transfected cells are selected over two weeks in media containing G418 (400 μg/ml) to obtain a pool of stably transfected cells. Independent clones are isolated from this pool by limiting dilution to obtain clonal stable cell lines for use in subsequent experiments.
Cells transfected with expression plasmids (as described in Example 4) and thereby expressing human capsaicin receptor are seeded and grown to 70-90% confluency in FALCON black-walled, clear-bottomed 96-well plates (#3904, BECTON-DICKINSON, Franklin Lakes, N.J.). The culture medium is emptied from the 96 well plates and FLUO-3 AM calcium sensitive dye (Molecular Probes, Eugene, Oreg.) is added to each well (dye solution: 1 mg FLUO-3 AM, 440 μL DMSO and 440 μl 20% pluronic acid in DMSO, diluted 1:250 in Krebs-Ringer HEPES (KRH) buffer (25 mM HEPES, […], 0.96 mM NaH2PO4, 1 mM MgSO4, 2 mM CaCl2, 5 mM glucose, 1 mM probenecid, pH 7.4), 50 μl diluted solution per well). Plates are covered with aluminum foil and incubated at 37° C. for 1-2 hours in an environment containing 5% CO2. After the incubation, the dye is emptied from the plates, and the cells are washed once with KRH buffer, and resuspended in KRH buffer.
To measure the ability of a test compound to agonize or antagonize a calcium mobilization response in cells expressing capsaicin receptors to capsaicin or other vanilloid agonist, the EC50 of the agonist capsaicin is first determined. An additional 20 μl of KRH buffer and 1 μl DMSO is added to each well of cells, prepared as described above. 100 μl capsaicin in KRH buffer is automatically transferred by the FLIPR instrument to each well. Capsaicin-induced calcium mobilization is monitored using either FLUOROSKAN ASCENT (Labsystems; Franklin, Mass.) or FLIPR (fluorometric imaging plate reader system; Molecular Devices, Sunnyvale, Calif.) instruments. Data obtained between 30 and 60 seconds after agonist application are used to generate an 8-point concentration response curve, with final capsaicin concentrations of 1 nM to 3 μM. KALEIDAGRAPH software (Synergy Software, Reading, Pa.) is used to fit the data to the equation: […]
Test compounds are dissolved in DMSO, diluted in 20 μl KRH buffer so that the final concentration of test compounds in the assay well is between […] and 5 μM, and added to cells prepared as described above. The 96 well plates containing prepared cells and test compounds are incubated in the dark at room temperature for 0.5 to 6 hours. It is important that the incubation not continue beyond 6 hours. Just prior to determining the fluorescence response, 100 μl capsaicin in KRH buffer at twice the EC50 concentration determined as described above is automatically added by the FLIPR instrument to each well of the 96 well plate for a final sample volume of 200 μl and a final capsaicin concentration equal to the EC50. The final concentration of test compounds in the assay wells is between 1 μM and 5 μM. […] The concentration of antagonist required to provide a 50% decrease, relative to the response observed in the presence of capsaicin and without antagonist, is the IC50 for the antagonist, and is preferably below 1 micromolar, 100 nanomolar, 10 nanomolar or 1 nanomolar.

IC50, < 1000 nM:
CCN1CCN(c2cc(C(F)(F)F)c(-c3cnc4c(Nc5ccc(C(F)(F)F)cn5)ccnc4n3)nn2)CC1 [Compound 88, 3-[6-(4-ethylpiperazin-1-yl)-4-(trifluoromethyl)pyridazin-3-yl]-N-[5-(trifluoromethyl)pyridin-2-yl]pyrido[2,3-b]pyrazin-8-amine]
CN1CCCC1CCNc1cc(C(F)(F)F)c(-c2cnc3c(Nc4ccc(C(F)(F)F)cn4)ccnc3n2)nn1 (centres unmarked) [Compound 72, 3-[6-{[2-(1-methylpyrrolidin-2-yl)ethyl]amino}-4-(trifluoromethyl)pyridazin-3-yl]-N-[5-(trifluoromethyl)pyridin-2-yl]pyrido[2,3-b]pyrazin-8-amine]
CCN(CCO)c1cc(C(F)(F)F)c(-c2cnc3c(Nc4ccc(C(F)(F)F)cn4)ccnc3n2)nn1 [Compound 194]
FC(F)(F)c1ccc(Nc2ccnc3nc(-c4nnc(N5CCOCC5)cc4C(F)(F)F)cnc23)nc1 [Compound 53, 3-[6-morpholin-4-yl-4-(trifluoromethyl)pyridazin-3-yl]-N-[5-(trifluoromethyl)pyridin-2-yl]pyrido[2,3-b]pyrazin-8-amine]
CCN1CCCC1CNc1cc(C(F)(F)F)c(-c2cnc3c(Nc4ccc(C(F)(F)F)cn4)ccnc3n2)nn1 (centres unmarked) [Compound 76, 3-[6-{[(1-ethylpyrrolidin-2-yl)methyl]amino}-4-(trifluoromethyl)pyridazin-3-yl]-N-[5-(trifluoromethyl)pyridin-2-yl]pyrido[2,3-b]pyrazin-8-amine]
OCCCCNc1cc(C(F)(F)F)c(-c2cnc3c(Nc4ccc(C(F)(F)F)cn4)ccnc3n2)nn1 [Compound 172, 4-{[5-(trifluoromethyl)-6-(8-{[5-(trifluoromethyl)pyridin-2-yl]amino}pyrido[2,3-b]pyrazin-3-yl)pyridazin-3-yl]amino}butan-1-ol]
CN(C)C(=O)CN(C)c1cc(C(F)(F)F)c(-c2cnc3c(Nc4ccc(C(F)(F)F)cn4)ccnc3n2)nn1 [Compound 59, N,N,N2-trimethyl-N2-[5-(trifluoromethyl)-6-(8-{[5-(trifluoromethyl)pyridin-2-yl]amino}pyrido[2,3-b]pyrazin-3-yl)pyridazin-3-yl]glycinamide]
COCCN(C)c1cc(C(F)(F)F)c(-c2cnc3c(Nc4ccc(C(F)(F)F)cn4)ccnc3n2)nn1 [Compound 181, 3-{6-[(2-methoxyethyl)(methyl)amino]-4-(trifluoromethyl)pyridazin-3-yl}-N-[5-(trifluoromethyl)pyridin-2-yl]pyrido[2,3-b]pyrazin-8-amine]
CC(C)CCNc1cc(C(F)(F)F)c(-c2cnc3c(Nc4ccc(C(F)(F)F)cn4)ccnc3n2)nn1 [Compound 106, 3-{6-[(3-methylbutyl)amino]-4-(trifluoromethyl)pyridazin-3-yl}-N-[5-(trifluoromethyl)pyridin-2-yl]pyrido[2,3-b]pyrazin-8-amine]
CN(CC(=O)O)c1cc(C(F)(F)F)c(-c2cnc3c(Nc4ccc(C(F)(F)F)cn4)ccnc3n2)nn1 [Compound 56, N-methyl-N-[5-(trifluoromethyl)-6-(8-{[5-(trifluoromethyl)pyridin-2-yl]amino}pyrido[2,3-b]pyrazin-3-yl)pyridazin-3-yl]glycine]
CCC(C)CNc1cc(C(F)(F)F)c(-c2cnc3c(Nc4ccc(C(F)(F)F)cn4)ccnc3n2)nn1 (centres unmarked) [Compound 154, 3-{6-[(2-methylbutyl)amino]-4-(trifluoromethyl)pyridazin-3-yl}-N-[5-(trifluoromethyl)pyridin-2-yl]pyrido[2,3-b]pyrazin-8-amine]
CCCN(CCC)CCNc1cc(C(F)(F)F)c(-c2cnc3c(Nc4ccc(C(F)(F)F)cn4)ccnc3n2)nn1 [Compound 83, N,N-dipropyl-N′-[5-(trifluoromethyl)-6-(8-{[5-(trifluoromethyl)pyridin-2-yl]amino}pyrido[2,3-b]pyrazin-3-yl)pyridazin-3-yl]ethane-1,2-diamine]
COCCCNc1cc(C(F)(F)F)c(-c2cnc3c(Nc4ccc(C(F)(F)F)cn4)ccnc3n2)nn1 [Compound 164, 3-{6-[(3-methoxypropyl)amino]-4-(trifluoromethyl)pyridazin-3-yl}-N-[5-(trifluoromethyl)pyridin-2-yl]pyrido[2,3-b]pyrazin-8-amine]
CCC(C)Nc1cc(C(F)(F)F)c(-c2cnc3c(Nc4ccc(C(F)(F)F)cn4)ccnc3n2)nn1 (centres unmarked) [Compound 108, 3-[6-(sec-butylamino)-4-(trifluoromethyl)pyridazin-3-yl]-N-[5-(trifluoromethyl)pyridin-2-yl]pyrido[2,3-b]pyrazin-8-amine]
FC(F)(F)c1ccc(Nc2ccnc3nc(-c4nnc(NC5CCC5)cc4C(F)(F)F)cnc23)nc1 [Compound 107, 3-[6-(cyclobutylamino)-4-(trifluoromethyl)pyridazin-3-yl]-N-[5-(trifluoromethyl)pyridin-2-yl]pyrido[2,3-b]pyrazin-8-amine]
CC(C)Nc1nc(Nc2ccnc3nc(-c4nnccc4C(F)(F)F)cnc23)ccc1C(F)(F)F [Compound 48, N2-isopropyl-3-(trifluoromethyl)-N-~6~-{3-[4-(trifluoromethyl)pyridazin-3-yl]pyrido[2,3-b]pyrazin-8-yl}pyridine-2,6-diamine]
N#Cc1cc(C(F)(F)F)c(-c2cnc3c(Nc4ccc(C(F)(F)F)cn4)ccnc3n2)nn1 [Compound 55, 5-(trifluoromethyl)-6-(8-{[5-(trifluoromethyl)pyridin-2-yl]amino}pyrido[2,3-b]pyrazin-3-yl)pyridazine-3-carbonitrile]
FC(F)(F)c1ccc(Nc2ccnc3nc(-c4nnc(N5CCCCC5)cc4C(F)(F)F)cnc23)nc1 [Compound 176, 3-[6-piperidin-1-yl-4-(trifluoromethyl)pyridazin-3-yl]-N-[5-(trifluoromethyl)pyridin-2-yl]pyrido[2,3-b]pyrazin-8-amine]
CC1CCN1c1cc(C(F)(F)F)c(-c2cnc3c(Nc4ccc(C(F)(F)F)cn4)ccnc3n2)nn1 (centres unmarked) [Compound 189, 3-[6-(2-methylazetidin-1-yl)-4-(trifluoromethyl)pyridazin-3-yl]-N-[5-(trifluoromethyl)pyridin-2-yl]pyrido[2,3-b]pyrazin-8-amine]
CC(O)CCNc1cc(C(F)(F)F)c(-c2cnc3c(Nc4ccc(C(F)(F)F)cn4)ccnc3n2)nn1 (centres unmarked) [Compound 174, 4-{[5-(trifluoromethyl)-6-(8-{[5-(trifluoromethyl)pyridin-2-yl]amino}pyrido[2,3-b]pyrazin-3-yl)pyridazin-3-yl]amino}butan-2-ol]
FC(F)(F)c1ccnnc1-c1cnc2c(Nc3cnc4ccccc4n3)ccnc2n1 [Compound 45, N-2-quinoxalinyl-3-[4-(trifluoromethyl)-3-pyridazinyl]pyrido[2,3-b]pyrazin-8-amine]
FC(F)(F)c1ccc(Nc2ccnc3nc(-c4nnc(N5CCCC5)cc4C(F)(F)F)cnc23)nc1 [Compound 120, 3-[6-pyrrolidin-1-yl-4-(trifluoromethyl)pyridazin-3-yl]-N-[5-(trifluoromethyl)pyridin-2-yl]pyrido[2,3-b]pyrazin-8-amine]

same assay, conditions: assay provided in Example 6; cells expressing human capsaicin receptor, capsaicin at EC50

IC50, < 1000 nM:
FC(F)(F)c1ccc(Nc2ccnc3nc(-c4nnccc4C(F)(F)F)cnc23)nc1 [Compound 2, N-[5-(Trifluoromethyl)pyridin-2-yl]-3-[4-(trifluoromethyl)pyridazin-3-yl]pyrido[2,3-b]pyrazin-8-amine]
